From the supplement of paper PMC8671470

How the values were obtained:
Details in all cases: 72 h
[1] = tested on: myeloid leukemia patient primary cells Pat.11; assay: cell viability (% survival relative to DMSO control); higher = less cytotoxic
Procedure, shortened: (§1)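 Where an area under the curve appears, it was computed with the drc and PharmacoGx R packages from log-logistic fits. Those fits used four parameters. The underlying viability data came from CellTiter-Glo after 72 h, normalised to DMSO and 10 μM proteasome-inhibitor wells, with thawed, Ficoll-purified AML or CML patient mononuclear cells at 10,000 cells/well in RPMI 1640 with 10% FBS on 384-well plates pre-printed with 70 compounds at five tenfold concentrations (1–10,000 nM) in duplicate.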

[2] = tested on: myeloid leukemia patient primary cells Pat.7; assay: as above
Procedure, shortened: as §1

[3] = tested on: myeloid leukemia patient primary cells Pat.2; assay: as above
Procedure, shortened: as §1

[4] = tested on: myeloid leukemia patient primary cells Pat.3; assay: as above
Procedure, shortened: as §1

[5] = tested on: myeloid leukemia patient primary cells Pat.6; assay: as above
Procedure, shortened: as §1

[6] = tested on: myeloid leukemia patient primary cells Pat.1; assay: as above
Procedure, shortened: as §1

[7] = tested on: myeloid leukemia patient primary cells Pat.15; assay: as above
Procedure, shortened: as §1

[8] = tested on: myeloid leukemia patient primary cells Pat.5; assay: as above
Procedure, shortened: as §1

[9] = tested on: myeloid leukemia patient primary cells Pat.10; assay: as above
Procedure, shortened: as §1

[10] = tested on: myeloid leukemia patient primary cells Pat.13; assay: as above
Procedure, shortened: as §1

[11] = tested on: myeloid leukemia patient primary cells Pat.12; assay: as above
Procedure, shortened: as §1

[12] = tested on: myeloid leukemia patient primary cells Pat.14; assay: as above
Procedure, shortened: as §1

[13] = tested on: myeloid leukemia patient primary cells Pat.8; assay: as above
Procedure, shortened: as §1

[14] = tested on: myeloid leukemia patient primary cells Pat.4; assay: as above
Procedure, shortened: as §1

[15] = tested on: KCL-22; assay: cell viability (% survival relative to DMSO control, bortezomib = 0%); higher = less cytotoxic
Procedure, shortened: (§2)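 In 384-well plates pre-printed with compounds at 1, 10, 100, 1000 or 10000 nM, duplicate wells received cells from 10 AML and 5 CML lines at densities within the linear growth range. The plates stayed at 37 °C with 5% CO2 for 72 h before CellTiter-Glo luminescence was recorded. Each entry is averaged percent survival. Scaling placed vehicle at 100% and a 10 µM positive control at 0%.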

[16] = tested on: KG-1; assay: as above
Procedure, shortened: as §2

[17] = tested on: MOLM-13; assay: as above
Procedure, shortened: as §2

[18] = tested on: HL-60; assay: area under dose-response curve (viability, 1 nM-10 uM) (fraction (0-1)); higher = more sensitive
Procedure, shortened: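 In 384-well plates, the full library was rescreened in duplicate on HL-60 cells in RPMI 1640 with 10% FBS, at 1–10,000 nM in five tenfold concentrations, for 72 h at 37 °C, 5% CO2. Each run also held DMSO or 100 nM of one of three metabolic inhibitors. Viability was measured by CellTiter-Glo and normalised to DMSO wells and to wells with proteasome inhibitor, present at 10 μM. Any area under the curve comes from four-parameter log-logistic fitting with drc and PharmacoGx.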

## O=C(C1CC1)N1CC[C@@H](C=C2NNC(=O)N2c2ccc(-c3ccc4occc4c3)cc2)C1
[1]; 1 nM
  cell viability: 94.6%
[1]; 10 nM
  cell viability: 98%
[1]; 100 nM
  cell viability: 99.7%
[1]; 1000 nM
  cell viability: 91.5%
[1]; 10000 nM
  cell viability: 88%
[2]; 1 nM
  cell viability: > 100%
[2]; 10 nM
  cell viability: 97.1%
[2]; 100 nM
  cell viability: 81.9%
[2]; 1000 nM
  cell viability: 51.6%
[2]; 10000 nM
  cell viability: 71.6%
[3]; 1 nM
  cell viability: > 100%
[3]; 10 nM
  cell viability: 99%
[3]; 100 nM
  cell viability: > 100%
[3]; 1000 nM
  cell viability: 95.2%
[3]; 10000 nM
  cell viability: 91.7%
[4]; 1 nM
  cell viability: 93.5%
[4]; 10 nM
  cell viability: > 100%
[4]; 100 nM
  cell viability: 84.2%
[4]; 1000 nM
  cell viability: 78.8%
[4]; 10000 nM
  cell viability: 77.1%
[5]; 1 nM
  cell viability: 98.1%
[5]; 10 nM
  cell viability: 97.7%
[5]; 100 nM
  cell viability: > 100%
[5]; 1000 nM
  cell viability: 89.4%
[5]; 10000 nM
  cell viability: 79.5%
[6]; 1 nM
  cell viability: 87%
[6]; 10 nM
  cell viability: 89%
[6]; 100 nM
  cell viability: > 100%
[6]; 1000 nM
  cell viability: 96.2%
[6]; 10000 nM
  cell viability: 79.7%
[7]; 1 nM
  cell viability: 89.4%
[7]; 10 nM
  cell viability: 95.2%
[7]; 100 nM
  cell viability: 95.7%
[7]; 1000 nM
  cell viability: 90.3%
[7]; 10000 nM
  cell viability: 84%
[8]; 1 nM
  cell viability: 73%
[8]; 10 nM
  cell viability: > 100%
[8]; 100 nM
  cell viability: 72.3%
[8]; 1000 nM
  cell viability: 35.3%
[8]; 10000 nM
  cell viability: 17.1%
[9]; 1 nM
  cell viability: 80.8%
[9]; 10 nM
  cell viability: 46.1%
[9]; 100 nM
  cell viability: 50.2%
[9]; 1000 nM
  cell viability: 67%
[9]; 10000 nM
  cell viability: 47.8%
[10]; 1 nM
  cell viability: 85.5%
[10]; 10 nM
  cell viability: 96.1%
[10]; 100 nM
  cell viability: 92.9%
[10]; 1000 nM
  cell viability: 86.5%
[10]; 10000 nM
  cell viability: 80.1%
[11]; 1 nM
  cell viability: 95.4%
[11]; 10 nM
  cell viability: 92.8%
[11]; 100 nM
  cell viability: > 100%
[11]; 1000 nM
  cell viability: 89%
[11]; 10000 nM
  cell viability: 84.1%
[12]; 1 nM
  cell viability: 92.5%
[12]; 10 nM
  cell viability: 91.4%
[12]; 100 nM
  cell viability: 96.2%
[12]; 1000 nM
  cell viability: 77.3%
[12]; 10000 nM
  cell viability: 79.5%
[13]; 1 nM
  cell viability: 85.5%
[13]; 10 nM
  cell viability: 95.4%
[13]; 100 nM
  cell viability: 74%
[13]; 1000 nM
  cell viability: 92.2%
[13]; 10000 nM
  cell viability: 73.2%
[14]; 1 nM
  cell viability: 79.7%
[14]; 10 nM
  cell viability: 87.2%
[14]; 100 nM
  cell viability: 90.8%
[14]; 1000 nM
  cell viability: 92.1%
[14]; 10000 nM
  cell viability: 71.6%
[15]; 1 nM
  cell viability: 99.1%
[15]; 10 nM
  cell viability: 101%
[15]; 100 nM
  cell viability: 94.9%
[15]; 1000 nM
  cell viability: 86.2%
[15]; 10000 nM
  cell viability: 58.3%
[16]; 1 nM
  cell viability: 95.4%
[16]; 10 nM
  cell viability: 104%
[16]; 100 nM
  cell viability: 112%
[16]; 1000 nM
  cell viability: 90.3%
[16]; 10000 nM
  cell viability: 82.4%
[17]; 1 nM
  cell viability: 101%
[17]; 10 nM
  cell viability: 77.4%
[17]; 100 nM
  cell viability: 75.1%
[17]; 1000 nM
  cell viability: 53.2%
[17]; 10000 nM
  cell viability: 44.7%

## C[C@H](NC(=O)c1sccc1OCc1ccc(Cl)cc1)c1ccccc1
[1]; 1 nM
  cell viability: 93%
[1]; 10 nM
  cell viability: > 100%
[1]; 100 nM
  cell viability: > 100%
[1]; 1000 nM
  cell viability: 97.6%
[1]; 10000 nM
  cell viability: > 100%
[2]; 1 nM
  cell viability: 93.1%
[2]; 10 nM
  cell viability: 85.3%
[2]; 100 nM
  cell viability: 90.3%
[2]; 1000 nM
  cell viability: 40.2%
[2]; 10000 nM
  cell viability: < 0%
[3]; 1 nM
  cell viability: > 100%
[3]; 10 nM
  cell viability: 95.8%
[3]; 100 nM
  cell viability: > 100%
[3]; 1000 nM
  cell viability: 97.8%
[3]; 10000 nM
  cell viability: 64%
[4]; 1 nM
  cell viability: 91.3%
[4]; 10 nM
  cell viability: 83.9%
[4]; 100 nM
  cell viability: 96.3%
[4]; 1000 nM
  cell viability: 96.2%
[4]; 10000 nM
  cell viability: 1.02%
[5]; 1 nM
  cell viability: > 100%
[5]; 10 nM
  cell viability: 98.1%
[5]; 100 nM
  cell viability: 99.6%
[5]; 1000 nM
  cell viability: 91.5%
[5]; 10000 nM
  cell viability: 35.7%
[6]; 1 nM
  cell viability: 94.5%
[6]; 10 nM
  cell viability: 95.9%
[6]; 100 nM
  cell viability: 91%
[6]; 1000 nM
  cell viability: > 100%
[6]; 10000 nM
  cell viability: 54%
[7]; 1 nM
  cell viability: 92.7%
[7]; 10 nM
  cell viability: 95.6%
[7]; 100 nM
  cell viability: 97.7%
[7]; 1000 nM
  cell viability: 92.2%
[7]; 10000 nM
  cell viability: 81.3%
[8]; 1 nM
  cell viability: 88.1%
[8]; 10 nM
  cell viability: 68.7%
[8]; 100 nM
  cell viability: 71.7%
[8]; 1000 nM
  cell viability: 19.4%
[8]; 10000 nM
  cell viability: 4.74%
[9]; 1 nM
  cell viability: 81.9%
[9]; 10 nM
  cell viability: 67.4%
[9]; 100 nM
  cell viability: 73.5%
[9]; 1000 nM
  cell viability: 80.2%
[9]; 10000 nM
  cell viability: < 0%
[10]; 1 nM
  cell viability: 92.9%
[10]; 10 nM
  cell viability: 89%
[10]; 100 nM
  cell viability: 92.3%
[10]; 1000 nM
  cell viability: 91.7%
[10]; 10000 nM
  cell viability: 43.4%
[11]; 1 nM
  cell viability: 90%
[11]; 10 nM
  cell viability: 98.4%
[11]; 100 nM
  cell viability: 91.8%
[11]; 1000 nM
  cell viability: > 100%
[11]; 10000 nM
  cell viability: 63.8%
[12]; 1 nM
  cell viability: 88.5%
[12]; 10 nM
  cell viability: 88%
[12]; 100 nM
  cell viability: 99.3%
[12]; 1000 nM
  cell viability: 99.3%
[12]; 10000 nM
  cell viability: 1.72%
[13]; 1 nM
  cell viability: 72.9%
[13]; 10 nM
  cell viability: 85.9%
[13]; 100 nM
  cell viability: 87.7%
[13]; 1000 nM
  cell viability: > 100%
[13]; 10000 nM
  cell viability: 61%
[14]; 1 nM
  cell viability: 94.6%
[14]; 10 nM
  cell viability: 93.6%
[14]; 100 nM
  cell viability: 94.1%
[14]; 1000 nM
  cell viability: 83.3%
[14]; 10000 nM
  cell viability: 39.9%
[18]; co-treatment: AZD3965 100 nM
  area under dose-response curve: < 0.0301
[18]; co-treatment: DMSO vehicle
  area under dose-response curve: < 0.0301
[18]; co-treatment: GSK2194069 100 nM
  area under dose-response curve: < 0.0301
[18]; co-treatment: pictilisib 100 nM
  area under dose-response curve: < 0.0301
[15]; 1 nM
  cell viability: 111%
[15]; 10 nM
  cell viability: 106%
[15]; 100 nM
  cell viability: 97.8%
[15]; 1000 nM
  cell viability: 84%
[15]; 10000 nM
  cell viability: 65.6%
[16]; 1 nM
  cell viability: 94%
[16]; 10 nM
  cell viability: 103%
[16]; 100 nM
  cell viability: 92.1%
[16]; 1000 nM
  cell viability: 91.9%
[16]; 10000 nM
  cell viability: 61.4%
[17]; 1 nM
  cell viability: 93.5%
[17]; 10 nM
  cell viability: 95.7%
[17]; 100 nM
  cell viability: 96.8%
[17]; 1000 nM
  cell viability: 109%
[17]; 10000 nM
  cell viability: 102%
